A short description of data set [1]: Safety and biodistribution of [68Ga]Ga-DOTA-FD1 in healthy volunteers and patients. The class given is in vivo, human. As to the method: This clinical trial received ethical approval from the institutional review board of The First Affiliated Hospital of Xiamen University and has been registered at ClinicalTrials.gov (NCT04849247). All healthy volunteers (n = 3) and patients (n = 6) provided written informed consent before participation. There was no need for any particular preparation for [^68Ga]Ga-DOTA-FD1 PET/CT. Each participant was administered a dose of [^68Ga]Ga-DOTA-FD1 at a rate of 3.0 to 3.7 MBq/kg. Adverse events were under observation for 4 h after the injection of [^68Ga]Ga-DOTA-FD1. A hybrid PET/CT system (Discovery MI, GE Healthcare, Milwaukee, WI, USA) was used to perform static PET/CT imaging after 60 min of injection. PET/CT scan was conducted from the head region to the upper thighs (for [^68Ga]Ga-DOTA-FD1 PET/CT). For the CT scan, the parameters utilized were 110 kV, 80 mA, and a slice thickness measuring 3.75 mm. The obtained data were transferred to the Advantage Workstation (version AW 4.7, GE Healthcare). The Bayesian penalized likelihood reconstruction algorithm (Q.clear, GE Healthcare) was utilized for image reconstruction, employing a penalization factor (beta) of 500. […] In terms of quantitative assessment, the maximum standardized uptake value (SUVmax) and the mean SUV (SUVmean) were employed to quantify the uptake of the radiopharmaceutical in both normal organs and tumor tissues.

The subject of data set [2] is tumor lesions of patients. Kind of data set: [68Ga]Ga-DOTA-FD1 PET/CT imaging in tumor patients. The class given is in vivo, human. The following applies: for Lymph node metastases Median SUVmax (range) / Primary tumor Median SUVmax: initial staging. Here is the method: (§1) This clinical trial received ethical approval from the institutional review board of The First Affiliated Hospital of Xiamen University and has been registered at ClinicalTrials.gov (NCT04849247). All healthy volunteers (n = 3) and patients (n = 6) provided written informed consent before participation. There was no need for any particular preparation for [^68Ga]Ga-DOTA-FD1 PET/CT. Each participant was administered a dose of [^68Ga]Ga-DOTA-FD1 at a rate of 3.0 to 3.7 MBq/kg. Adverse events were under observation for 4 h after the injection of [^68Ga]Ga-DOTA-FD1. A hybrid PET/CT system (Discovery MI, GE Healthcare, Milwaukee, WI, USA) was used to perform static PET/CT imaging after 60 min of injection. PET/CT scan was conducted from the head region to the upper thighs (for [^68Ga]Ga-DOTA-FD1 PET/CT). For the CT scan, the parameters utilized were 110 kV, 80 mA, and a slice thickness measuring 3.75 mm. The obtained data were transferred to the Advantage Workstation (version AW 4.7, GE Healthcare). The Bayesian penalized likelihood reconstruction algorithm (Q.clear, GE Healthcare) was utilized for image reconstruction, employing a penalization factor (beta) of 500. For tumor staging/restaging, a total of 6 patients received paired PET/CT imaging using [^68Ga]Ga-DOTA-FD1. In terms of quantitative assessment, the maximum standardized uptake value (SUVmax) and the mean SUV (SUVmean) were employed to quantify the uptake of the radiopharmaceutical in both normal organs and tumor tissues.

A short description of data set [3]: [68Ga]Ga-DOTA-FD1 PET/CT imaging in tumor patients. The class given is in vivo, human. The following applies: human. As to the method:
as §1

Data set [4] is described as follows: microPET/CT imaging, ROI analysis, HT-1080 tumor models. The data set is classed as in vivo, mice. To be noted: nude (thymus-free), mouse, intravenous, 3 MBq, 30 min p.i. Here is the method:
(§2) A human pancreatic cancer cell line BxPC-3 and a murine pancreatic cancer cell Panc-02 were obtained from the American Type Culture Collection. The pancreatic cancer cell line T3M-4 was purchased by MeisenCTCC (Zhejiang, China). BxPC-3 and T3M-4 cell lines were grown in RPMI 1640 medium (Shanghai BasalMedia Technologies Co., LTD.) containing 10% FBS (GE Healthcare, Chicago, IL, USA) and 1% penicillin–streptomycin solution (Invitrogen). To culture the Panc-02 cell line, a medium called Dulbecco’s modified Eagle medium from Shanghai BasalMedia Technologies Co., LTD. was used, which consisted of 10% FBS. The cell line HT-1080 was grown in MEM medium (Shanghai BasalMedia Technologies Co., LTD.) supplemented with 10% FBS, 1% penicillin-streptomycin solution, and 1% nonessential amino acids (NEAA-11140050; Gibco). A human fibrosarcoma cell line was stably transfected with FAP (HT1080-FAP) and cultured, as we previously described. All cell lines were cultured in a humid incubator with 5% CO2 at a temperature of 37 °C. Approval was granted by the Institutional Animal Care and Use Committee (Renji Hospital, School of Medicine, Shanghai Jiao Tong University) for all experimental protocols and procedures related to animal care. Panc-02 cells were implanted by subcutaneous injection of 5 × 10^6 tumor cells suspended in 100 μl PBS and matrigel matrix (Corning) with equal volume into the upper limb flank of C57BL/6 mice (Shanghai Sheng Chang Biotechnology Co., Ltd.). Four- to 6-week-old thymus-free nude mice (GemPharmatech) were subcutaneously inoculated with BxPC-3, T3M-4, HT-1080, and HT1080-FAP cells (5 × 10^6 in 100 μl of PBS mixing with 100 μl matrigel matrix) in the right shoulder. […]
(§3) MicroPET imaging was performed on isoflurane-anesthetized mice injected intravenously via the lateral tail vein with around 3 MBq (2.5 nmol) of the radioligand at certain times. […] The information was analyzed using OsiriX Lite software (Pixmeo SARL) and Inveon Research Workplace (Siemens Preclinical Solutions). […]

Data set [5] can be described thus: microPET/CT imaging, ROI analysis, HT1080-FAP tumor models. The class given is in vivo, mice. To be noted: nude (thymus-free), mouse, intravenous. Here is the method:
(§4) A human pancreatic cancer cell line BxPC-3 and a murine pancreatic cancer cell Panc-02 were obtained from the American Type Culture Collection. The pancreatic cancer cell line T3M-4 was purchased by MeisenCTCC (Zhejiang, China). BxPC-3 and T3M-4 cell lines were grown in RPMI 1640 medium (Shanghai BasalMedia Technologies Co., LTD.) containing 10% FBS (GE Healthcare, Chicago, IL, USA) and 1% penicillin–streptomycin solution (Invitrogen). To culture the Panc-02 cell line, a medium called Dulbecco’s modified Eagle medium from Shanghai BasalMedia Technologies Co., LTD. was used, which consisted of 10% FBS. The cell line HT-1080 was grown in MEM medium (Shanghai BasalMedia Technologies Co., LTD.) supplemented with 10% FBS, 1% penicillin-streptomycin solution, and 1% nonessential amino acids (NEAA-11140050; Gibco). A human fibrosarcoma cell line was stably transfected with FAP (HT1080-FAP) and cultured, as we previously described. All cell lines were cultured in a humid incubator with 5% CO2 at a temperature of 37 °C. Approval was granted by the Institutional Animal Care and Use Committee (Renji Hospital, School of Medicine, Shanghai Jiao Tong University) for all experimental protocols and procedures related to animal care. Panc-02 cells were implanted by subcutaneous injection of 5 × 10^6 tumor cells suspended in 100 μl PBS and matrigel matrix (Corning) with equal volume into the upper limb flank of C57BL/6 mice (Shanghai Sheng Chang Biotechnology Co., Ltd.). Four- to 6-week-old thymus-free nude mice (GemPharmatech) were subcutaneously inoculated with BxPC-3, T3M-4, HT-1080, and HT1080-FAP cells (5 × 10^6 in 100 μl of PBS mixing with 100 μl matrigel matrix) in the right shoulder. Follow-up microPET/CT imaging and ex vivo biodistribution experiments were performed when the tumor diameter reached 8 to 9 mm.
MicroPET imaging was performed on isoflurane-anesthetized mice injected intravenously via the lateral tail vein with around 3 MBq (2.5 nmol) of the radioligand at certain times. Regarding the FD1 blocking group, an excessive amount of unlabeled FD1 (200-fold) was simultaneously injected with [^68Ga]Ga-DOTA-FD1 into the tail vein of another batch of mice. Images were acquired using an IRIS PET/CT system (Inviscan Imaging Systems). PET data were reconstructed using a nonscatter-corrected 3D-ordered subset expectation […]/maximum a posteriori (OSEM3D/MAP) algorithm. The information was analyzed using OsiriX Lite software (Pixmeo SARL) and Inveon Research Workplace (Siemens Preclinical Solutions). The percentage of injected dose per gram of tissue (%ID/g, mean ± SD) was utilized to present the distribution of tracers in the ROI, encompassing tumor, heart, lung, liver, kidney, and muscle.

A short description of data set [6]: Ex vivo biodistribution after imaging, HT1080-FAP tumor models. The following applies: nude (thymus-free), mouse, intravenous, total radioactivity. The data set is classed as in vivo, mice. As to the method:
as §4
After imaging collection and image reconstruction, samples from euthanized experimental mice, including blood and multiple significant organs, were harvested and weighed. The radioactivity in each collected tissue was counted using an automated gamma counter (Wizard 2480, PerkinElmer) and the accumulation of radioactivity in different tissues and organs was quantified and expressed as %ID/g (mean ± SD). [^177Lu]Lu-DOTA-FD1 (~1.11 MBq, n = 3), [^177Lu]Lu-DOTA-FD2 (~1.11 MBq, n = 3), and [^177Lu]Lu-DOTA-FD3 (~1.11 MBq, n = 3) were injected into the tail vein of free nude mice at 6 h, 24 h, and 24 h for ex vivo biodistribution to verify the circulation time of the 3 probes in vivo. Biodistribution data from tumor-bearing mice injected with [^177Lu]Lu-DOTA-FD3 at 45 h (~1.11 MBq, n = 4) and 90 h (~1.11 MBq, n = 3) validated the prolonged enrichment of the probe at the tumor site. At the end of each probe imaging and radioactivity counting study, tumor tissues were fixed in paraformaldehyde tissue fixative. Briefly, sections of 10 μm were cut and stained for H&E following the standard protocols. IHC staining with a FAP antibody (ab227703, Abcam) was performed only on tumor tissues following accepted techniques.

The nature of data set [7]: Ex vivo biodistribution after imaging, HT-1080 tumor models. The class given is in vivo, mice. To be noted: nude (thymus-free), mouse, intravenous, 3 MBq, total radioactivity, after imaging at 30 min p.i., read-out: tumor uptake (biodistribution study). As to the method:
A human pancreatic cancer cell line BxPC-3 and a murine pancreatic cancer cell Panc-02 were obtained from the American Type Culture Collection. The pancreatic cancer cell line T3M-4 was purchased by MeisenCTCC (Zhejiang, China). BxPC-3 and T3M-4 cell lines were grown in RPMI 1640 medium (Shanghai BasalMedia Technologies Co., LTD.) containing 10% FBS (GE Healthcare, Chicago, IL, USA) and 1% penicillin–streptomycin solution (Invitrogen). To culture the Panc-02 cell line, a medium called Dulbecco’s modified Eagle medium from Shanghai BasalMedia Technologies Co., LTD. was used, which consisted of 10% FBS. The cell line HT-1080 was grown in MEM medium (Shanghai BasalMedia Technologies Co., LTD.) supplemented with 10% FBS, 1% penicillin-streptomycin solution, and 1% nonessential amino acids (NEAA-11140050; Gibco). […]
After imaging collection and image reconstruction, samples from euthanized experimental mice, including blood and multiple significant organs, were harvested and weighed. The radioactivity in each collected tissue was counted using an automated gamma counter (Wizard 2480, PerkinElmer) and the accumulation of radioactivity in different tissues and organs was quantified and expressed as %ID/g (mean ± SD). […] At the end of each probe imaging and radioactivity counting study, tumor tissues were fixed in paraformaldehyde tissue fixative. […]

Data set [8] is described as follows: microPET/CT imaging, ROI analysis, Panc-02 tumor models. To be noted: C57BL/6, mouse, intravenous, 3 MBq, 1 h after tracer injection. The data set is classed as in vivo, mice. Here is the method: as §2, §3
The nature of data set [9]: microPET/CT imaging, ROI analysis, BxPC-3 tumor models. The class given is in vivo, mice. To be noted: nude (thymus-free), mouse, intravenous, 3 MBq, 1 h after tracer injection. Here is the method: as §2, §3

Where two headings read alike, the source gives them in different places.

Take `CCCCCC(=O)N[C@H]1CSCc2cc(CSCCNC(=O)[C@H](CCCCN)NC(=O)[C@@H](NC(=O)[C@H](CCSC)NC(=O)CN3CCN(CC(=O)O)CCN(CC(=O)O)CCN(CC(=O)O)CC3)C(C)C)cc(c2)CSC[C@@H](C(=O)O)NC(=O)[C@H](Cc2ccccc2)NC(=O)[C@H](CCC(N)=O)NC(=O)[C@H]([C@@H](C)O)NC(=O)[C@@H]2CCCN2C(=O)[C@@H]2CCCN2C1=O` [[^68Ga]Ga-DOTA-FD1, metal not drawn]: in data set [1] (healthy volunteers (n = 3), PET 60 min after injection), the “uptake in normal tissues and organs” value is “negligible uptake in normal tissues and organs except the kidneys”. Further, the adverse events entry in data set [1] (healthy volunteers and patients, during the injection and at 4 h follow-up, 3.0 to 3.7 MBq/kg) is recorded as “No adverse events were observed”. Besides, in [2] (Patient 1, thyroid cancer, recurrence detection), the “Bone and visceral metastases Median SUVmax (range)” value is 2.87 (2.52–4.45). The “Lymph node metastases Median SUVmax (range)” value in data set [2] (Patient 3, esophagus cancer) was 4.29 (4.02–4.57); in [2] (Patient 4, NPC), 5.67 (4.14–7.76). The “Primary tumor Median SUVmax” value in data set [2] (Patient 3, esophagus cancer) is given as 7.64; in [2] (Patient 4, NPC), 5.27; in data set [2] (Patient 5, esophagus cancer), 10.07; in data set [2] (Patient 6, esophagus cancer) it was 13.42. Moreover, the SUV at 1 h in [3] (primary tumour lesions, 4 primary lesions, initial staging patients, 60 min after injection, read-out: median SUVmax of primary lesions) was determined as 8.86 SUV; in data set [3] (15 lymph node metastases in 3 patients, read-out: median SUVmax of lymph node metastases), 5.6 SUV. Also, the tissue uptake at 0.5 h in [4] was found to be 1.97 ± 0.45 %ID/g; in data set [7], 1.02 ± 0.41 %ID/g. In addition, the tissue uptake in [5] (750 ug, HT1080-FAP tumor, co-injected excess unlabeled FD1 (750 μg), read-out: tumor uptake (ROI analysis) upon FD1 blocking) amounted to 2.63 ± 1.28 %ID/g; in data set [5] (3 MBq, HT1080-FAP tumor, without blocking, read-out: tumor uptake (ROI analysis)), 8.85 ± 3.3 %ID/g; in data set [5] (kidney, 750 ug, HT1080-FAP models, co-injected excess unlabeled FD1 (750 μg), read-out: kidney accumulation (ROI analysis) upon FD1 blocking), 10.3 ± 1.67 %ID/g; in data set [5] (kidney, 3 MBq, HT1080-FAP models, without blocking, read-out: kidney accumulation (ROI analysis)) it was 40.6 ± 4.76 %ID/g; in data set [6] (750 ug, HT1080-FAP tumor, co-injected excess unlabeled FD1 (750 μg), read-out: tumor uptake (biodistribution) upon FD1 blocking), 2.15 ± 0.58 %ID/g; in data set [6] (3 MBq, HT1080-FAP tumor, without blocking, read-out: tumor uptake (biodistribution study)), 19.2 ± 6.51 %ID/g. The tissue uptake in [6] (kidney, 750 ug, HT1080-FAP models, co-injected excess unlabeled FD1 (750 μg), read-out: kidney accumulation (biodistribution analysis) upon FD1 blocking) was determined as 30.3 ± 4.45 %ID/g; in data set [6] (kidney, 3 MBq, HT1080-FAP models, without blocking, read-out: kidney accumulation (biodistribution analysis)) it was 110 ± 27.1 %ID/g. Further, the tissue uptake at 1 h in data set [8] came to 0.92 ± 0.22 %ID/g; in data set [9] it was 0.96 ± 0.07 %ID/g.
